Consider two compounds from PubChem BioAssay (NCI).

Among the test systems are HS 578T breast; UACC-62 melanoma; UO-31 renal; CCRF-CEM leukemia; DU-145 prostate; HT29 colon; SK-MEL-5 melanoma; NCI/ADR-RES ovarian; NCI-H226 lung; MDA-MB-435.
Assay in all cases: NCI-60 cell line screen, 48 h

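Each compound was tested at five concentrations against cells in 96-well plates for 48 hours. Here, GI50 denotes the concentration required for 50% inhibition of growth. The concentration for full growth arrest is given as TGI.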 A value given as a limit tells only on which side of the number the result lay.

As for `[O-]c1c2cc(-[n+]3c(-c4ccccc4)cc(-c4ccccc4)cc3-c3ccccc3)cc1CO[C@@H](c1ccccc1)[C@H](c1ccccc1)OCCOCCO[C@@H](c1ccccc1)[C@H](c1ccccc1)OC2`, the TGI with HS 578T breast is 3.12 µM; with UACC-62 melanoma, 1390 nM; in the assay on UO-31 renal it was greater than 100 µM; with CCRF-CEM leukemia it was 238 nM; in the assay on DU-145 prostate it was 1140 nM; with HT29 colon, 646 nM.
For `COc1ccc2c(CCCCC(c3ccccc3)c3ccccc3)c3[n+](cc2c1OC)CCc1cc2c(cc1-3)OCO2`, the GI50 is 536 nM with HS 578T breast; 45.1 nM in the assay on SK-MEL-5 melanoma; 1830 nM in the assay with NCI/ADR-RES ovarian; 280 nM with NCI-H226 lung; 106 nM in the assay on MDA-MB-435. The TGI in the assay on HS 578T breast was 3.09 µM; in the assay on SK-MEL-5 melanoma, 177 nM; in the assay on NCI/ADR-RES ovarian it was 7.48 µM; in the assay with NCI-H226 lung, 1850 nM; with MDA-MB-435 it was 1020 nM.
